Assay results reported in ChEMBL document CHEMBL1155973, “Disubstituted pyrimidines as Lck inhibitors” (Bioorg Med Chem Lett, 2009).

Experiments:
Jurkat = experiment: Inhibition of antigen-stimulated IL-2 production in human Jurkat cells expressing MART-1 antigen specific TCR; assay type: functional, cell-based
[1] = target: T1, Tyrosine-protein kinase Lck (Homo sapiens, UniProt P06239); experiment: Inhibition of Lck
[2] = target: T1, Tyrosine-protein kinase Lck; experiment: Inhibition of Lck kinase activity

T1 sequence (P06239 whole entry): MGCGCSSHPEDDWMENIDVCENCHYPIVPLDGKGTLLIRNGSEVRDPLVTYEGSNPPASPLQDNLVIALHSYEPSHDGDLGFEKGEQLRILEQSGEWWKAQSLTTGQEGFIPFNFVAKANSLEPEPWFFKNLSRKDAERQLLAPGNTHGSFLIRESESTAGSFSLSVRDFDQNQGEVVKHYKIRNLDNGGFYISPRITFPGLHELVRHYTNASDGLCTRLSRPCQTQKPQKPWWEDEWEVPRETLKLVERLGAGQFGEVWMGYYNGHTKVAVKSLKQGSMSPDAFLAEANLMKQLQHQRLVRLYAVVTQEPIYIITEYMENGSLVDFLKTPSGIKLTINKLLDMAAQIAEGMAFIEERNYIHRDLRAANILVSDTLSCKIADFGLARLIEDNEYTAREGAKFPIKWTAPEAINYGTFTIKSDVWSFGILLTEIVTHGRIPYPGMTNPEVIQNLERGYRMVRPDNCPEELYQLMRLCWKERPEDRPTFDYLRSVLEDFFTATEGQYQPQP

For `C[C@H](Nc1nccc(-n2cnc3ccccc32)n1)[C@@H]1CN(C(=O)Nc2cccc3ccccc23)CCN1c1ccncc1`, the IC50 (Jurkat; Homo sapiens, Jurkat) was 546 nM and the IC50 [1] was 0.2 nM.
For `O=C(OCc1ccccc1)N1CCCCC1CNc1nccc(-n2cnc3ccccc32)n1` (centres undefined), the IC50 [1] was over 20000 nM.
`C[C@H](Nc1nccc(-n2cnc3cc(-c4ccnc(N)n4)ccc32)n1)c1ccccc1` was tested, and the IC50 (Jurkat; Homo sapiens, Jurkat) was 111 nM and the IC50 [1] was 1.5 nM.
Work on `C[C@H](Nc1nccc(-n2cnc3cc(-c4ccnc(N)n4)ccc32)n1)[C@@H]1CN(C(=O)Nc2cccc3ccccc23)CCN1C` yielded an IC50 (Jurkat; Homo sapiens, Jurkat) of 16 nM and an IC50 [1] of 0.07 nM.
Molecule `C[C@H](Nc1nccc(-n2cnc3ccccc32)n1)C1CCCCC1` has an IC50 [1] of 243 nM.
For `CC(Nc1nccc(-n2cnc3ccccc32)n1)C1CCCN(C(=O)Nc2ccccc2)C1` (centres undefined), the IC50 [1] was 11 nM.
Work on `CCN1CCN(c2ccc3c(c2)ncn3-c2ccnc(N[C@@H](C)c3ccccc3)n2)C1=O` yielded an IC50 (Jurkat; Homo sapiens, Jurkat) of 167 nM and an IC50 [1] of 1 nM.
Work on `CCOC(=O)CN1CCN(C(=O)Nc2cccc3ccccc23)C[C@H]1[C@H](C)Nc1nccc(-n2cnc3ccccc32)n1` yielded an IC50 (Jurkat; Homo sapiens, Jurkat) of 847 nM and an IC50 [1] of 0.45 nM.
For `Cc1ccc2c(c1)ncn2-c1ccnc(N[C@@H](C)c2ccccc2)n1`, the IC50 [2] was 128 nM and the IC50 [1] was 128 nM.
`C[C@H](Nc1nccc(-n2cnc3ccccc32)n1)[C@@H]1CN(C(=O)Nc2cccc3ccccc23)CCN1C` was tested, and the IC50 (Jurkat; Homo sapiens, Jurkat) was 111 nM and the IC50 [1] was 0.06 nM.
`CN1CCN(C(=O)c2ccc3ccccc3c2)CC1CNc1nccc(-n2cnc3ccccc32)n1` (centres undefined) gave an IC50 [1] of 10 nM.
In the case of `CCCCCCN1CCN(C(=O)Nc2cccc3ccccc23)C[C@H]1[C@H](C)Nc1nccc(-n2cnc3ccccc32)n1`, the IC50 (Jurkat; Homo sapiens, Jurkat) is reported as over 1000 nM and the IC50 [1] is reported as 1.8 nM.
`CC(Nc1nccc(-n2cnc3ccccc32)n1)C1CCCN(C(=O)Cc2ccccc2)C1` (centres undefined) gave an IC50 [1] of 800 nM.
`CC(Nc1nccc(-n2cnc3ccccc32)n1)C1CCCN(C(=O)Oc2ccccc2)C1` (centres undefined) gave an IC50 [1] of 46 nM.
Molecule `Cc1ccc2ncn(-c3ccnc(N[C@@H](C)c4ccccc4)n3)c2c1` has an IC50 [2] of 58 nM and an IC50 [1] of 58 nM.
For `O=C(c1ccc2ccccc2c1)N1CCCC(CNc2nccc(-n3cnc4ccccc43)n2)C1` (centres undefined), the IC50 [1] was 106 nM.
`c1ccc(CNc2nccc(-n3cnc4ccccc43)n2)cc1` gave an IC50 [1] of 827 nM.
`CC(Nc1nccc(-n2cnc3ccccc32)n1)C1CN(C(=O)Nc2ccc3ccccc3c2)CCN1C` (centres undefined) gave an IC50 (Jurkat; Homo sapiens, Jurkat) of over 1000 nM and an IC50 [1] of 75.2 nM.
`C[C@H](Nc1nccc(-n2cnc3ccccc32)n1)c1ccccc1` showed an IC50 [1] of 153 nM.
`Cc1cc2ncn(-c3ccnc(N[C@@H](C)c4ccccc4)n3)c2cc1C` showed an IC50 [2] of 2070 nM and an IC50 [1] of 2070 nM.
In the case of `CC(Nc1nccc(-n2cnc3ccccc32)n1)C1CN(S(C)(=O)=O)CCN1C` (centres undefined), the IC50 (Jurkat; Homo sapiens, Jurkat) is reported as over 1000 nM and the IC50 [1] is reported as 22.5 nM.
With `CC(Nc1nccc(-n2cnc3ccccc32)n1)C1CN(Cc2ccccc2)CCN1C` (centres undefined) the IC50 (Jurkat; Homo sapiens, Jurkat) was over 10000 nM and the IC50 [1] was 501 nM.
Molecule `CCN1CCN(c2ccc3c(c2)ncn3-c2ccnc(N[C@@H](C)[C@@H]3CN(C(=O)Nc4cccc5ccccc45)CCN3C)n2)C1=O` has an IC50 (Jurkat; Homo sapiens, Jurkat) of 42 nM and an IC50 [1] of 0.4 nM.
`CC(C)CN1CCN(C(=O)Nc2cccc3ccccc23)C[C@H]1[C@H](C)Nc1nccc(-n2cnc3ccccc32)n1` was tested, and the IC50 (Jurkat; Homo sapiens, Jurkat) was 538 nM and the IC50 [1] was 0.2 nM.
In the case of `CC(=O)N1CCN(C(=O)Nc2cccc3ccccc23)C[C@H]1[C@H](C)Nc1nccc(-n2cnc3ccccc32)n1`, the IC50 (Jurkat; Homo sapiens, Jurkat) is reported as over 10000 nM and the IC50 [1] is reported as 115 nM.
In the case of `CC(Nc1nccc(-n2cnc3ccccc32)n1)C1CCCN(C(=O)NC2CCCCC2)C1` (centres undefined), the IC50 [1] is reported as 1260 nM.
Work on `CC(Nc1nccc(-n2cnc3ccccc32)n1)C1CN(C)CCN1C` (centres undefined) yielded an IC50 (Jurkat; Homo sapiens, Jurkat) of over 10000 nM and an IC50 [1] of over 1000 nM.
`O=C(OCc1ccccc1)N1CCC(CNc2nccc(-n3cnc4ccccc43)n2)CC1` showed an IC50 [1] of over 20000 nM.
`C[C@H](Nc1nccc(-n2cnc3ccccc32)n1)[C@H]1CCCN(C(=O)Nc2cccc3ccccc23)C1` showed an IC50 [1] of 0.4 nM.
`CCN1CCN(C(=O)Nc2cccc3ccccc23)C[C@H]1[C@H](C)Nc1nccc(-n2cnc3ccccc32)n1` showed an IC50 (Jurkat; Homo sapiens, Jurkat) of 154 nM and an IC50 [1] of 0.07 nM.
`CC(Nc1nccc(-n2cnc3ccccc32)n1)C1CN(C(=O)Nc2cccc3ccccc23)CCN1S(=O)(=O)c1ccccc1` (centres undefined) showed an IC50 (Jurkat; Homo sapiens, Jurkat) of over 10000 nM and an IC50 [1] of 26.5 nM.
For `CC(Nc1nccc(-n2cnc3ccccc32)n1)C1CN(C(=O)Nc2cccc3ccccc23)CCN1C(=O)OCc1ccccc1` (centres undefined), the IC50 (Jurkat; Homo sapiens, Jurkat) was over 10000 nM and the IC50 [1] was over 1000 nM.
Molecule `C[C@H](Nc1nccc(-n2cnc3cc(-c4ccncc4)ccc32)n1)[C@@H]1CN(C(=O)Nc2cccc3ccccc23)CCN1C` has an IC50 (Jurkat; Homo sapiens, Jurkat) of 8 nM and an IC50 [1] of 0.12 nM.
`CC(Nc1nccc(-n2cnc3ccccc32)n1)C1CN(C(=O)Nc2cccc3ccccc23)CCN1Cc1ccccc1` (centres undefined) gave an IC50 (Jurkat; Homo sapiens, Jurkat) of over 1000 nM and an IC50 [1] of 2.6 nM.
Work on `CC(Nc1nccc(-n2cnc3ccccc32)n1)C1CN(C(=O)Nc2cccc3ccccc23)CCN1S(C)(=O)=O` (centres undefined) yielded an IC50 (Jurkat; Homo sapiens, Jurkat) of over 1000 nM and an IC50 [1] of 11.8 nM.
In the case of `O=C(OCc1ccccc1)N1CCCC(CNc2nccc(-n3cnc4ccccc43)n2)C1` (centres undefined), the IC50 [1] is reported as 650 nM.
In the case of `C[C@@H](Nc1nccc(-n2cnc3ccccc32)n1)c1ccccc1`, the IC50 [1] is reported as 1770 nM.
`CC(Nc1nccc(-n2cnc3ccccc32)n1)C1CNCCN1C` (centres undefined) gave an IC50 (Jurkat; Homo sapiens, Jurkat) of over 10000 nM and an IC50 [1] of over 1000 nM.
For `O=C(Nc1cccc2ccccc12)N1CCC(CNc2nccc(-n3cnc4ccccc43)n2)C1` (centres undefined), the IC50 [1] was over 10000 nM.
For `CC(Nc1nccc(-n2cnc3ccccc32)n1)C1CCCN(C(=O)Nc2ccc3ccccc3c2)C1` (centres undefined), the IC50 [1] was 40 nM.
`CNC(=O)N1CCCC(C(C)Nc2nccc(-n3cnc4ccccc43)n2)C1` (centres undefined) showed an IC50 [1] of 242 nM.
Molecule `C[C@H](Nc1nccc(-n2cnc3ccccc32)n1)c1cccc([N+](=O)[O-])c1` has an IC50 [1] of 47 nM.
With `C[C@H](Nc1nccc(-n2cnc3cc(-c4ccncc4)ccc32)n1)c1ccccc1` the IC50 (Jurkat; Homo sapiens, Jurkat) was 98 nM and the IC50 [1] was 3 nM.
For `O=C(c1ccc2ccccc2c1)N1CCOC(CNc2nccc(-n3cnc4ccccc43)n2)C1` (centres undefined), the IC50 [1] was 203 nM.
In the case of `Cc1nc2ccccc2n1-c1ccnc(N[C@@H](C)c2ccccc2)n1`, the IC50 [2] is reported as over 20000 nM and the IC50 [1] is reported as over 20000 nM.
Molecule `O=C(Nc1cccc2ccccc12)N1CCNC(CNc2nccc(-n3cnc4ccccc43)n2)C1` (centres undefined) has an IC50 [1] of 110 nM.
`CC(Nc1nccc(-n2cnc3ccccc32)n1)C1CCCN(C(=O)Nc2cccc3ccccc23)C1` (racemic) showed an IC50 [1] of 1 nM.
For `CC(Nc1nccc(-n2cnc3ccccc32)n1)C1CN(C(=O)Nc2cccc3ccccc23)CCN1C` (single isomer, unassigned; diastereomer 1), the IC50 (Jurkat; jurkat) was 361 nM and the IC50 [1] was 0.25 nM.
`CC(Nc1nccc(-n2cnc3ccccc32)n1)C1CN(C(=O)Nc2cccc3ccccc23)CCN1C` (single isomer, unassigned; diastereomer 2) showed an IC50 (Jurkat; jurkat) of over 1000 nM and an IC50 [1] of 17.4 nM.
For `CC(Nc1nccc(-n2cnc3ccccc32)n1)C1CCCN(C(=O)OCc2ccccc2)C1` (stereo in doubt; 12a), the IC50 [1] was 144 nM.
In the case of `CC(Nc1nccc(-n2cnc3ccccc32)n1)C1CCCN(C(=O)OCc2ccccc2)C1` (stereo in doubt; 12b), the IC50 [1] is reported as 2720 nM.
